Source: US8563584B2, “Substituted enaminothiocarbonyl compounds” (Bayer CropScience AG, priority 2008, dated 2013)

Assays:
[1] = tested on: larvae of the mustard beetle (Phaedon cochleariae); experiment: Phaedon test (PHAECO spray treatment); type: in vivo; settings: application rate of 500 g/ha; spray treatment of Chinese cabbage leaf discs
Method: Phaedon Test ([…] Spray Treatment) Solvents: 78 parts by weight of acetone • • 1.5 parts by weight of dimethylformamide Emulsifier: 0.5 part by weight of alkylaryl polyglycol ether To produce a suitable preparation of active compound, 1 part by weight of active compound is mixed with the stated amounts of solvent and emulsifier, and the concentrate is diluted with emulsifier-containing water to the desired concentration. Discs of Chinese cabbage leaves (Brassica pekinensis) are sprayed with an active compound preparation of the desired concentration and, after drying, populated with larvae of the mustard beetle (Phaedon cochleariae). After the desired period of time, the effect in % is determined 100% means that all beetle larvae have been killed; 0% means that none of the beetle larvae have been killed.

[2] = tested on: green peach aphid (Myzus persicae); experiment: Myzus test (MYZUPE spray treatment); type: in vivo; settings: application rate of 500 g/ha; spray treatment of infested Chinese cabbage leaf discs, all stages
Method: Myzus Test (MYZUPE Spray Treatment) Solvents: 78 parts by weight of acetone • • 1.5 parts by weight of dimethylformamide Emulsifier: 0.5 part by weight of alkylaryl polyglycol ether To produce a suitable preparation of active compound, 1 part by weight of active compound is mixed with the stated amounts of solvent and emulsifier, and the concentrate is diluted with emulsifier-containing water to the desired concentration. Discs of Chinese cabbage leaves (Brassica pekinensis) which are infested by all stages of the green peach aphid (Myzus persicae) are sprayed with a preparation of active compound of the desired concentration. After the desired period of time, the effect in % is determined 100% means that all aphids have been killed; 0% means that none of the aphids have been killed.

SMILES: FC(F)CN(Cc1ccc(Cl)nc1)C1=CC(=S)OC1 [Ex. No. 1, 4-{[(6-Chloropyridin-3-yl)methyl](2,2-difluoroethyl)amino}furan-2(5H)-thione]
- activity (effect in %; 100% means that all beetle larvae have been killed) [1]: ≥ 80%
- activity (effect in %; 100% means that all aphids have been killed) [2]: ≥ 80%
